Assay results published in EP0385106A1, “Sustained release bolus effective for the prolonged prevention, treatment or control of nematode, acarid and endo- and ectoparasitic infestations of ruminants” (AMERICAN CYANAMID COMPANY, priority 1989, dated 1990).

Columns and labels:
Format in all cases: in vivo
[1] = Weight gains of cattle (Example 14)
Protocol: (§1) One half boluses (weight 25.5 to 27.0 g) and are administered to cattle on pasture. […] In this test pastured animals are randomly divided into groups of 5 animals per group and ear-tagged. The feces of all animals is examined prior to the tests in order to determine the average number of nematode eggs per gram of feces of the test animals. […] The test is begun with all animals receiving one half of a bolus weighing about 25 to 27 grams. […] The animals are then placed in individual paddocks and examined at intervals during the holding period up to 120 days. […]

Oesophlogostonum = experiment: Per cent control of nematodes in cattle (Example 14); conditions: dewormed 57 days earlier
Protocol: as §1

Ostertagia = experiment: as above; conditions: dewormed 57 days earlier
Protocol: as §1

Cooperia = experiment: as above; conditions: dewormed 57 days earlier
Protocol: as §1

Haemonchus = experiment: as above; conditions: dewormed 57 days earlier
Protocol: as §1

nematode eggs = experiment: Nematode eggs per gram of feces in pastured cattle (Example 14)
Protocol: as §1

## c1ccc([C@H]2CN3CCSC3=N2)cc1 [Levamisole]
[1]; Day 7
  Average weight gains (Kg) from Day 0: 7 kg
[1]; Day 62
  Average weight gains (Kg) from Day 0: 0 kg
[1]; Day 110
  Average weight gains (Kg) from Day 0: 21 kg
Oesophlogostonum
  Avg. number worms Oesophlogostonum: 117
Ostertagia
  Avg. number worms Ostertagia: 729
Cooperia
  Avg. number worms Cooperia: 5937
Haemonchus
  Avg. number worms Haemonchus: 2325
Nematode eggs; Day 0 (before treatment)
  Average number of nematode eggs per gram of feces: (2850)
Nematode eggs; Day 7
  Average number of nematode eggs per gram of feces: 5
  per cent in parentheses beside the egg count (reduction of nematode eggs): 99.9%
Nematode eggs; Day 62 (levamisole group re-treated on day 62)
  Average number of nematode eggs per gram of feces: 755
Nematode eggs; Day 119
  Average number of nematode eggs per gram of feces: 146
